Results reported in patent US20240425571A1, “GLYCOPROTEIN A REPETITIONS PREDOMINANT (GARP)-BINDING ANTIBODIES AND USES THEREOF” (OHIO STATE INNOVATION FOUNDATION, priority 2021, published 2024).

How the values were obtained:
B16-F1 melanomas = test: B16-F1 melanoma, adoptive T cell therapy with anti-platelet agents; format: in vivo, mouse; settings: for anti-tumor effect: aspirin and clopidogrel added to Cy, no T cells; for antigen-specific T cells in blood, ILNs and spleens: aspirin and clopidogrel concurrent with ACT; for efficacy and relapse-free survival: aspirin and clopidogrel plus Cy and adoptive Pmel T cell transfer
[1] = tested on: MB-49 Bladder Cancer cells; test: MB-49 bladder cancer model in hLRRC32KI mice; settings: FTY720 2 mg/kg every two days, 6 doses, with PIIO-1
Experimental: A. 1×10^5 MB-49 Bladder Cancer cells were injected s.c. on the right flank of hLRRC32KI mice. […] Representative tumor curve. B. 1×10^5 MB-49 Bladder cancer cells were injected s.c. on the right flank of hLRRC32KI mice. […] Tumors were collected and perform flow cytometry on day 10. Frequency of CD8+ T cells as a proportion of live CD45+ lymphocytes (left). 1×10^5 MB-49 Bladder Cancer cells were injected s.c. on the right flank of hLRRC32KI mice. […] Tumors were collected and perform flow cytometry on day 22. […] C. Frequency of CD25+Foxp3^+ Tregs in CD4+ tumor-infiltrating T cells (left). […] UMAP dimension reduction of tumor-infiltrating CD8+ T cells from B after staining with 33 markers and spectral flow cytometry analysis. Shown is the data gated on live CD45+CD3+CD8+ T cells, subsampled on 5000 cells per sample Unsupervised clustering analysis was done using FlowSOM algorithm with an elbow method approach for cluster number determination. E. Heatmap of D showing expression levels of indicated markers by each cluster. […] Cluster differences were measured by two-tailed Student's t test.
A. Experimental scheme. […] Overall survival is analyzed by log-rank (Mantel-Cox) test. […]
A. 1×10^5 MB-49 Bladder Cancer cells were injected s.c. in the right flank of hLRRC32KI mice. […] B. Quantification of panel A. 1×10^5 MB-49 Bladder Cancer cells were injected s.c. on the right flank of hLRRC32KI mice. […]

[2] = tested on: platinum resistant advanced NSCLC; test: POPLAR database analysis by LRRC32 (GARP) expression; format: in vivo, human; settings: for OS or disease control rate, Atezolizumab vs docetaxel: patients with high GARP expression
Text: Mechanistically, PD-1 blockade works primarily by targeting the progenitor exhausted population of CD8^+ T cells in the TME (TCF-1 expressing, SlamF6 expressing, PD-1 intermediate to low expressing). These cells deliver the proliferative burst following treatment resulting in increased differentiation to the terminal exhausted population, which is responsible for tumor clearance. […] Thus, we hypothesized GARP expression can contribute to PD-1/L1 ICB resistance. To address this hypothesis, we first mined the POPLAR database which compared PD-L1 blockade Atezolizumab with chemotherapy (i.e., docetaxel) for the platinum resistant advanced NSCLC. In this multi-center international phase II trial, bulk RNAseq data from pre-treatment tumors were available for 86 patients enrolled primarily in the US sites. We divided these patients into GARP high and low expression group with median expression level of LRRC32 transcript as the cutoff. […] To further address this hypothesis, we tested the combination therapy of anti-GARP antibody huPIIO-1 and PD-1 blockade in murine Lewis Lung Carcinoma (LLC) and CMT-167 lung cancer models, both of which are considered immunologically cold tumors with resistance to single agent PD-1 ICB. To do so, the human GARP KI mice were challenged with LCC followed by treatment with 200 μg/mouse of Isotype, huPIIO-1, anti-PD-1 antibody, or a combination of huPIIO-1 and PD-1 every 3 days starting on day 8 post tumor challenge for a total of 4 injections.

Baculovirus = Baculovirus (BV) ELISA for non-specific binding
Experimental: Baculovirus (BV) ELISA was employed as a preliminary assay to evaluate antibody's potential nonspecific binding risk.
In Baculovirus (BV) ELISA, the inventor used Rituxan Mab as reference. […] If a clone only has binding on BV, but not on 293 cells, it will be considered as having a low risk of non-specific binding.
Methods—Baculovirus ELISA. Plates are coated with 50 μl of 1:500 diluted Baculovirus sample in PBS in each well. Plates are kept at 4° C. for overnight. The plates are washed with 300 μL of wash buffer ×3 and 200 μl blocking buffer (1% BSA) is added at RT for 60 min. Plates are washed with 300 μl of wash buffer ×3 and 100 μl of diluted Abs are added at different concentrations/well, followed by RT incubation for 1 hr. Plates are washed with 300 μl of wash buffer ×6 and 100 μl of 1:5000 HRP conjugated second Ab in PBS is added followed by RT incubation for 1 hr. The plates are washed with 300 μl of wash buffer ×6. Developing buffer is added and the plate is read.

[3] = patients with low GARP expression

In the case of `O=P1(N(CCCl)CCCl)NCCCO1` (stereo not drawn) [Cy, cyclophosphamide], the tumor control (B16-F1 melanomas; Cy alone) is reported as “failed to control tumors”.

In the case of `CCCCCCCCc1ccc(CCC(N)(CO)CO)cc1` [FTY720], the “effect of FTY720 on anti-tumor efficacy of PIIO-1 and T cell infiltration” value [1] is reported as “abrogated the anti-tumor efficacy of PIIO-1 and effectively blocked T cell infiltration”.

In the case of `CC(=O)Oc1ccccc1C(=O)O` [aspirin], the anti-tumor effect (B16-F1 melanomas) is reported as “no anti-tumor effects”, the “antigen-specific T cells in blood, ILNs and spleens” value (B16-F1 melanomas) is reported as “sustained at higher numbers” and the “efficacy and relapse-free survival” value (B16-F1 melanomas) is reported as “highly effective against B16-F1 with relapse-free survival of most mice beyond 3 months”.

In the case of `COC(=O)[C@H](c1ccccc1Cl)N1CCc2sccc2C1` [clopidogrel], the anti-tumor effect (B16-F1 melanomas) is reported as “no anti-tumor effects”, the “antigen-specific T cells in blood, ILNs and spleens” value (B16-F1 melanomas) is reported as “sustained at higher numbers” and the “efficacy and relapse-free survival” value (B16-F1 melanomas) is reported as “highly effective against B16-F1 with relapse-free survival of most mice beyond 3 months”.

In the case of `CC(=O)O[C@@]12CO[C@@H]1C[C@H](O)[C@@]1(C)C(=O)[C@H](O)C3=C(C)[C@@H](OC(=O)[C@H](O)[C@@H](NC(=O)OC(C)(C)C)c4ccccc4)C[C@@](O)([C@@H](OC(=O)c4ccccc4)[C@H]21)C3(C)C` [docetaxel], the “OS or disease control rate, Atezolizumab vs docetaxel” value [2] is reported as “did not demonstrate any difference” and the disease control rate [2, 3] is reported as 9.5%.

Atezolizumab: PD-L1 blockade was tested, and the “OS or disease control rate, Atezolizumab vs docetaxel” value [2] was “did not demonstrate any difference”, the disease control rate [2, 3] was 68.2% and the “overall survival HR, Atezolizumab vs docetaxel” value ([2]; patients with low GARP expression, p=0.086) was 1.89.

With “Rituxan: Rituxan Mab used as reference in BV ELISA [reference compound]” the “BV ELISA with purified IgG, raw BV binding data” value (from here on “BV ELISA with purified IgG”) (Baculovirus; Ab. Conc. 0.15625 ug/ml) was 12.1, the “BV ELISA with purified IgG” value (Baculovirus; Ab. Conc. 0.3125 ug/ml) was 13.7 and the “BV ELISA with purified IgG” value (Baculovirus; Ab. Conc. 0.625 ug/ml) was 13.7. The “BV ELISA with purified IgG” value (Baculovirus; Ab. Conc. 1.25 ug/ml) was 13.0, the “BV ELISA with purified IgG” value (Baculovirus; Ab. Conc. 2.5 ug/ml) was 17.0 and the “BV ELISA with purified IgG” value (Baculovirus; Ab. Conc. 5 ug/ml) was 22.7. For the same compound, the “BV ELISA with purified IgG” value (Baculovirus; Ab. Conc. 10 ug/ml) was 66.0 and the “BV ELISA with purified IgG” value (Baculovirus; Ab. Conc. 20 ug/ml) was 98.8.
